# Laboratory results from publication PMC6973011, “Stafia‐1: a STAT5a‐Selective Inhibitor Developed via Docking‐Based Screening of in Silico O‐Phosphorylated Fragments” (Chemistry (Weinheim an Der Bergstrasse, Germany), 2019).
# Substitutions are numbered along the chain they refer to.
# Assays:
# [1] = target: T1, STAT5b Arg566Trp/Gln636Pro/Met639Asn/Phe640Leu/Met644Lys/Asn664Ser/Tyr679Phe (STAT5b‐7M) (Homo sapiens, UniProt P51692, F640L/M639N/M644K/N664S/Q636P/R566W/Y679F); experiment: Fluorescence polarization assay, mutant STAT5b-7M; assay type: binding; conditions: FP assay
# T1 construct: made in house
# T1 sequence (P51692 1-787 R566W/Q636P/M639N/F640L/M644K/N664S/Y679F): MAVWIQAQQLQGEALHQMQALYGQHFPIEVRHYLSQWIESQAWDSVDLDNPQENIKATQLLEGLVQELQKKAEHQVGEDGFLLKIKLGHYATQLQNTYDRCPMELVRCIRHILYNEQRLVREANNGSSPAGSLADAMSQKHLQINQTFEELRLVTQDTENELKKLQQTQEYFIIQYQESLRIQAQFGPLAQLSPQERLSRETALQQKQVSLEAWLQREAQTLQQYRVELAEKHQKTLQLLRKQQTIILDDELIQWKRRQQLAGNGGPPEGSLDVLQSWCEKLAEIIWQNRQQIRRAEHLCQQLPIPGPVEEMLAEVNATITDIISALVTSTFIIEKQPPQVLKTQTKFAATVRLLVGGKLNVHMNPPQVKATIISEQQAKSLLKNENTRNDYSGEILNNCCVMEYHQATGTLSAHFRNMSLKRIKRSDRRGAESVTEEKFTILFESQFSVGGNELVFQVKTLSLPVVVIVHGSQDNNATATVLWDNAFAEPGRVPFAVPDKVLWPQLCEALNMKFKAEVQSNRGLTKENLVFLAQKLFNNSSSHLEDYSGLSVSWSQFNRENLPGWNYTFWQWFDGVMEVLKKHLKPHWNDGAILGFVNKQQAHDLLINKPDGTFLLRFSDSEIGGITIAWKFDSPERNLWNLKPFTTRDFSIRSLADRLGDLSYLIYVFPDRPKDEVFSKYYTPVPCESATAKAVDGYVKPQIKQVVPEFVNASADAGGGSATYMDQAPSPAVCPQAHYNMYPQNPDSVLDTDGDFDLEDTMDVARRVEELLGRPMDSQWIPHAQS
# [2] = target: T2, STAT5b Arg566Trp/Met644Lys (Homo sapiens, UniProt P51692, M644K/R566W); experiment: Fluorescence polarization assay, double mutant STAT5b Arg566Trp/Met644Lys; assay type: binding; conditions: FP assay
# T2 construct: made in house
# T2 sequence (P51692 1-787 R566W/M644K): T1 sequence (P51692 1-787 R566W/Q636P/M639N/F640L/M644K/N664S/Y679F) with P636Q, N639M, L640F, S664N, F679Y
# STAT5b = target: T3, STAT5b (Homo sapiens, UniProt P51692); experiment: Fluorescence polarization competitive binding assay, STAT5b; conditions: read-out: STAT5b inhibition at 200 μM
# T3 construct: made in house
# T3 sequence (P51692 1-787): T1 sequence (P51692 1-787 R566W/Q636P/M639N/F640L/M644K/N664S/Y679F) with W566R, P636Q, N639M, L640F, K644M, S664N, F679Y
smiles,measurement,setting,value
COc1cc(-c2cc(OP(=O)(O)O)cc(-c3cc(OC)c(OC)c(OC)c3)c2)cc(OC)c1OC [Compound 20],IC50,[1],42.6 ± 8.8 µM
same,Ki,[1],21.1 ± 4.4 µM
same,IC50,[2],128 ± 8 µM
same,Ki,[2],63.1 ± 4.2 µM
same,inhibition at 200 µM,STAT5b,37 ± 5%
